Source: PubChem BioAssay (NCI)
“And” between values parts separate entries of the source, which are not always exact repeats. Equal entries are not always repeated.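 Cells were grown in 96-well plates and exposed to each compound for 48 hours at five concentrations; endpoints were interpolated linearly between bracketing concentrations, or set to the highest concentration if not reached. At the GI50, growth is halved. TGI is the concentration that stops growth completely.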

What was measured:
Test in all cases: NCI anticancer screen, dose series, 48 h
786-0 renal = test system: 786-0 renal
NCI-H460 lung = test system: NCI-H460 lung
UO-31 renal = test system: UO-31 renal
IGROV1 ovarian = test system: IGROV1 ovarian
HL-60(TB) leukemia = test system: HL-60(TB) leukemia
SF-295 CNS = test system: SF-295 CNS
HT29 colon = test system: HT29 colon
HS 578T breast = test system: HS 578T breast
NCI/ADR-RES ovarian = test system: NCI/ADR-RES ovarian
PC-3 prostate = test system: PC-3 prostate

Structure (SMILES)	TGI (786-0 renal)	TGI (NCI-H460 lung)	TGI (UO-31 renal)	TGI (IGROV1 ovarian)	TGI (HL-60(TB) leukemia)	TGI (SF-295 CNS)	TGI (HT29 colon)	GI50 (SF-295 CNS)	GI50 (786-0 renal)	GI50 (NCI-H460 lung)	GI50 (HT29 colon)	GI50 (HS 578T breast)	TGI (HS 578T breast)	GI50 (NCI/ADR-RES ovarian)	TGI (NCI/ADR-RES ovarian)	GI50 (PC-3 prostate)	TGI (PC-3 prostate)	GI50 (HL-60(TB) leukemia)	GI50 (UO-31 renal)	GI50 (IGROV1 ovarian)
Cc1[nH]c(=O)nc(N/N=C/c2ccc(O)cc2)c1C(=O)Nc1ccc(Cl)cc1	> 100 µM	> 100 µM	> 100 µM	> 100 µM	> 100 µM	–	–	–	–	–	–	–	–	–	–	–	–	–	–	–
COc1ccccc1NC(=O)C(=O)C1C(=O)Nc2ccccc2S1=O (stereo unspecified)	> 100 µM	> 100 µM	> 100 µM	> 100 µM	> 100 µM	> 100 µM	> 100 µM	–	–	–	–	–	–	–	–	–	–	–	–	–
COC(=O)C1CCC(=NC2c3ccccc3-c3ccccc32)N1 (stereo unspecified)	> 100 µM	> 100 µM	> 100 µM	> 100 µM	> 100 µM	> 100 µM	> 100 µM	–	–	–	–	–	–	–	–	–	–	–	–	–
COc1cc2c(c(OC)c1OC)-c1ccc(SC)c(=O)cc1[C@@H](NC(=O)c1ccc(C#N)cc1)CC2	20.9 µM	< 0.01 µM	> 100 µM	> 100 µM	–	< 0.01 µM	< 0.01 µM	–	–	–	–	–	–	–	–	–	–	–	–	–
O=C(CN=Cc1cccs1)CSC(c1ccccc1)c1ccccc1	> 100 µM	70.1 µM	–	–	41.9 µM	> 100 µM	99.2 µM	35.1 µM	34 µM	24.8 µM	27.7 µM	26.1 µM	97 µM	24.9 µM	88.8 µM	17.5 µM	47.9 µM	18.9 µM	–	–
COc1ccc(N(Cc2cc(OC)c(OC)c(OC)c2)C2OC(=O)c3ccccc32)cc1 (stereo unspecified)	> 100 µM	> 60.2 µM	> 100 µM	> 100 µM	2.25 µM	> 100 µM	> 43.1 µM	0.534 µM	0.701 µM	0.394 µM	0.365 µM	0.373 µM	> 100 µM	–	–	0.666 µM	> 100 µM	0.308 µM	2.3 µM	1.07 µM
OCCCCC#Cc1ccccc1C#Cc1cnccn1	> 100 µM	96.9 µM	> 100 µM	96 µM	–	91.6 µM	> 100 µM	28.1 µM	34.7 µM	27.4 µM	27.6 µM	24.9 µM	85.1 µM	25.1 µM	92.2 µM	34.6 µM	> 100 µM	–	27 µM	25.8 µM
COc1cc(C(=O)/C=C/c2c(C(F)(F)F)nc3sccn23)cc(OC)c1OC	3.16 µM	3.94 µM	3.71 µM	61.4 µM	7.63 µM	7.86 µM	4.08 µM	2.58 µM	1.76 µM	1.65 µM	1.83 µM	–	–	–	–	2.66 µM	8.69 µM	1.83 µM	1.87 µM	2.66 µM
O=c1c2cc(F)ccc2sc2c(NCCCN3CCCC3)nc3ccccc3c12	3.08 µM	–	4.18 µM	3.85 µM	4.58 µM	4.39 µM	–	2.1 µM	1.61 µM	–	–	2.18 µM	6.22 µM	1.99 µM	4.49 µM	1.6 µM	3.15 µM	2.06 µM	1.59 µM	1.84 µM
CC[C@@]1(O)C(=O)OCc2c1cc1n(c2=O)Cc2cc3c(NC(C)=O)c(O)ccc3nc2-1	2.17 µM	4.24 µM	16.2 µM	> 88.5 µM	5.05 µM	> 32.1 µM	> 77.5 µM	0.721 µM	0.373 µM	0.288 µM	13.7 µM	–	–	–	–	–	–	0.416 µM	1.76 µM	6.27 µM
CCC1NCC(=O)c2c1[nH]c1ccccc21 (stereo unspecified)	> 100 µM	> 100 µM	> 100 µM	> 100 µM	> 100 µM	> 100 µM	> 100 µM	–	–	–	–	–	–	–	–	–	–	–	–	–
CCCCCCCCCCCCCCCC(=O)N[C@H]1CCc2cc(OC)c(OC)c(OC)c2-c2ccc(SC)c(=O)cc21	8.24 µM and 12.9 µM	2.15 µM and 10.1 µM	18.4 µM	39 µM and 10.9 µM	1.35 µM and 6.82 µM	8.89 µM and 5.44 µM	0.853 µM and 4.66 µM	1.12 µM	3.31 µM	2.97 µM	1.81 µM	–	–	–	–	–	–	2.01 µM	–	–
CCCCCCCCC(=O)NCCCNCCCNC(=O)CCCCCCCC	3.52 µM	6.57 µM	27.6 µM	10.6 µM	3.77 µM	14.2 µM	7.5 µM	–	–	–	–	–	–	–	–	–	–	–	–	–
CN1c2ccccc2C(=O)Nc2cnc(Cl)nc21	> 100 µM	–	> 100 µM	> 100 µM	> 100 µM	> 100 µM	> 100 µM	–	–	–	–	–	–	–	> 100 µM	–	> 100 µM	–	–	–
Clc1ccccc1C1=NN(c2ccccc2)C2c3cc(Br)ccc3OCC12 (stereo unspecified)	> 100 µM	> 100 µM	> 100 µM	> 100 µM	> 100 µM	> 100 µM	> 100 µM	–	–	–	–	–	–	–	–	–	–	–	–	–
O=c1[nH]c(-c2ccccn2)nc2sc3c(c12)CCCCCC3	> 100 µM	> 100 µM	> 100 µM	> 100 µM	> 100 µM	–	> 100 µM	–	5.65 µM	1.91 µM	7.69 µM	6.45 µM	> 100 µM	0.961 µM	> 100 µM	4.05 µM	> 100 µM	3.39 µM	5.87 µM	3.98 µM
N#CC(=C=[N-])[n+]1ccc(Cl)cc1	37.2 µM	55.5 µM	59.9 µM	36.4 µM	20.4 µM	38.9 µM	33.8 µM	–	–	–	–	–	–	–	–	–	–	–	–	–
COc1ccc(N=C2NN=C(c3c[nH]c4ccccc34)CS2)cc1OC	> 91.5 µM	> 45.2 µM	> 100 µM	> 100 µM	–	> 100 µM	> 43.6 µM	4.29 µM	12 µM	4.11 µM	4.01 µM	5.38 µM	> 100 µM	3.15 µM	> 28 µM	–	> 45.8 µM	–	5.81 µM	10.5 µM
